The subject of assay [1] is maize pollen. In words: Relative ROS level in maize pollen (ROS detection kit, fluorometry). Type of assay: cell-based. The procedure: The red channel or bright channel of the photo was analyzed, and the ROS level was represented by the light intensity of the wavelength with the largest proportion. The relative ROS level in a reproductive tissue refers to a ratio of the ROS level of the reproductive tissue to the ROS level in the control group (40% sucrose).
Taking maize pollen as an example, the experiment of a series of compounds that may affect the ROS level in the maize pollen was tested.
All reagents are dissolved in 40% sucrose. The relative ROS levels were from 6-7 measurements.

The test system of assay [2] is sperm cells of maize pollen. Description: DNA fragmentation in sperm cells of treated maize pollen (single sperm amplified sequencing). The following applies: treated pollen vs 40% sucrose control.
Description: DNA fragmentation (which is one of the characteristics of haploid) in the treated pollen is detected.
Release sperm cells on the slide and separate a single sperm for amplified sequencing (Sigma WGA4 kit).
The mark [3] stands for this setting: bright channel, ratio to 40% sucrose control, final concentration as listed per compound in Table 5, 6-7 measurements.
Setting [4] is: red channel, ratio to 40% sucrose control, final concentration as listed per compound in Table 5, 6-7 measurements.

Values joined by “and” are separate entries in the source; they are usually repeats but may differ in a detail not shown here. Identical values can stand only once. Like-named read-outs stand apart in the source and are kept apart here.

Regarding `Nc1ncnc2c1ncn2[C@@H]1O[C@@H]2COP(=O)(O)O[C@H]2[C@H]1O` [Compound 3, cyclic Adenosine Monophosphate], in assay [1] (setting [3]), the “Relative ROS Level Bright” value stood at 2.04 ± 0.15. In addition, the “Relative ROS Level Red” value in assay [1] (setting [4]) came out at 1.97 ± 0.10.
PA_18:1 [Compound 25]: the “Relative ROS Level Bright” value in assay [1] (setting [3]) is 0.33 ± 0.02. The “Relative ROS Level Red” value in assay [1] (setting [4]) worked out at 0.34 ± 0.01.
For “1,2-Octadecyl Phosphatidylinositol Di-4,5-Phosphate [Compound 5]”, in that order: 1.06 ± 0.06 and 1.05 ± 0.07.
In the case of PI_18:1 [Compound 24], the “Relative ROS Level Bright” value in assay [1] (setting [3]) was 0.81 ± 0.05. The “Relative ROS Level Red” value in assay [1] (setting [4]) is listed as 0.88 ± 0.06.
Turning to `O=C(O)CC(O)(CC(=O)O)C(=O)O` [Compound 21, Citric acid], the “Relative ROS Level Bright” value in assay [1] (setting [3]) amounted to 0.74 ± 0.06. Also, in assay [1] (setting [4]), the “Relative ROS Level Red” value amounted to 0.78 ± 0.02.
As for `Cn1cc[nH]c1=S` [Compound 12, Methimazole], the “Proportion of fragmentation compared with control group” value in assay [2] is “higher proportion of fragmentation”.
PI(3)P_18:1 [Compound 19]: the “Relative ROS Level Bright” value in assay [1] (setting [3]) worked out at 0.62 ± 0.06. Also, the “Relative ROS Level Red” value in assay [1] (setting [4]) is listed as 0.63 ± 0.05.
With `OO` [Hydrogen Peroxide, Hydrogen peroxide], in assay [2], the “Proportion of fragmentation compared with control group” value is listed as “higher proportion of fragmentation”.
For PS_18:1 [Compound 22], the “Relative ROS Level Bright” value in assay [1] (setting [3]) is 0.65 ± 0.02. In addition, the “Relative ROS Level Red” value in assay [1] (setting [4]) was determined as 0.63 ± 0.05.
Take `C/C1=C\[C@H](C)C[C@H](C)OC(=O)C[C@H](c2ccc(O)cc2)NC(=O)[C@@H](Cc2c(Br)[nH]c3ccccc23)N(C)C(=O)[C@H](C)NC(=O)[C@@H](C)C1` [Compound 6, Jasplakinolide]: in assay [1] (setting [3]), the “Relative ROS Level Bright” value worked out at 1.79 ± 0.16. Also, the “Relative ROS Level Red” value in assay [1] (setting [4]) amounted to 1.77 ± 0.16.
Turning to `C/C1=C/C(=O)O[C@@H]2C[C@@H](CC[C@H](C)/C=C\C=C\CC1)O[C@@](O)([C@@H]1CSC(=O)N1)C2` [Compound 9, Latrunculin A], in assay [1] (setting [3]), the “Relative ROS Level Bright” value is given as 1.37 ± 0.00. Also, the “Relative ROS Level Red” value in assay [1] (setting [4]) was 1.35 ± 0.05.
For `C/C1=C/C(=O)O[C@@H]2C[C@@H](CC[C@H](C)/C=C\CC1)O[C@@](O)([C@@H]1CSC(=O)N1)C2` [Compound 8, Latrunculin B], the “Relative ROS Level Bright” value in assay [1] (setting [3]) came to 1.64 ± 0.10. Further, in assay [1] (setting [4]), the “Relative ROS Level Red” value is recorded as 1.66 ± 0.06.
In the case of `CC(=O)OC(C)(C)/C=C/C(=O)[C@](C)(O)[C@H]1[C@H](O)C[C@@]2(C)[C@@H]3CC=C4[C@@H](C=C(O)C(=O)C4(C)C)[C@]3(C)C(=O)C[C@]12C` [Compound 7, Cucurbitacin E], in assay [1] (setting [3]), the “Relative ROS Level Bright” value is recorded as 1.37 ± 0.02. Further, in assay [1] (setting [4]), the “Relative ROS Level Red” value turned out to be 1.31 ± 0.08.
In the case of PI(4)P_18:1 [Compound 18], the “Relative ROS Level Bright” value in assay [1] (setting [3]) is on record as 0.82 ± 0.10. Besides, the “Relative ROS Level Red” value in assay [1] (setting [4]) is reported as 0.84 ± 0.08.
`S=C([S-])OC1CC2CC1C1CCCC21.[K+]` (stereo not shown) [Compound 16]: in assay [1] (setting [3]), the “Relative ROS Level Bright” value is listed as 1.12 ± 0.10. Besides, the “Relative ROS Level Red” value in assay [1] (setting [4]) is reported as 1.14 ± 0.10.
Consider `[Ca+2].[Cl-].[Cl-]` [Compound 1, calcium chloride], for which, in assay [1], the “Relative ROS Level Bright” value was 4.03 ± 0.24 and 3.11 ± 0.23; the “Relative ROS Level Red” value is 3.81 ± 0.21 and 3.01 ± 0.23; the “effect on relative ROS level (in words)” value is “most obvious effect on the increase of ROS level”.
Regarding `O=C(NCCN1CCC(n2c(=O)[nH]c3ccccc32)CC1)c1cc2cc(F)ccc2[nH]1` [Compound 13], in assay [1] (setting [3]), the “Relative ROS Level Bright” value amounted to 1.35 ± 0.06. The “Relative ROS Level Red” value in assay [1] (setting [4]) stood at 1.34 ± 0.07.
Regarding `O=P(O)(O)O[C@@H]1[C@H](O)[C@H](O)[C@@H](OP(=O)(O)O)[C@H](OP(=O)(O)O)[C@H]1O` [Compound 20, IP3(1,4,5)], the “Relative ROS Level Bright” value in assay [1] (setting [3]) amounted to 0.60 ± 0.02. In addition, the “Relative ROS Level Red” value in assay [1] (setting [4]) turned out to be 0.67 ± 0.03.
Consider inositol triphosphate [Compound 4], for which the “Relative ROS Level Bright” value in assay [1] (setting [3]) was found to be 1.37 ± 0.00. Moreover, in assay [1] (setting [4]), the “Relative ROS Level Red” value is recorded as 1.39 ± 0.01.
For `Cc1ccc2c(c1)C(=O)C1(O)CCN(c3ccccc3)C1=N2` (stereo not shown) [Compound 10, Blebbistatin], in assay [1] (setting [3]), the “Relative ROS Level Bright” value is reported as 1.37 ± 0.14. For the same molecule, the “Relative ROS Level Red” value in assay [1] (setting [4]) is reported as 1.35 ± 0.17.
Regarding `c1ccc2c(c1)[I+]c1ccccc1-2` [Compound 11, Diphenyl iodide chloride], the “Relative ROS Level Bright” value in assay [1] (setting [3]) stood at 1.53 ± 0.14. Also, the “Relative ROS Level Red” value in assay [1] (setting [4]) worked out at 1.55 ± 0.13.
With `O=[N+]([O-])[O-].O=[N+]([O-])[O-].[Ca+2]` [Compound 2, calcium nitrate], the “Relative ROS Level Bright” value in assay [1] (bright channel, final concentration 1.83 mM, ratio to 40% sucrose control) is 2.57 ± 0.15; in assay [1] (bright channel, final concentration 18.3 mM, ratio to 40% sucrose control) it was 3.08 ± 0.12. Besides, the “Relative ROS Level Red” value in assay [1] (red channel, final concentration 1.83 mM, ratio to 40% sucrose control) was 2.55 ± 0.21; in assay [1] (red channel, final concentration 18.3 mM, ratio to 40% sucrose control), 2.97 ± 0.12.
As for PI(3,5)PP_18:1 [Compound 17], the “Relative ROS Level Bright” value in assay [1] (setting [3]) came out at 0.82 ± 0.11. The “Relative ROS Level Red” value in assay [1] (setting [4]) was determined as 0.88 ± 0.08.
The matching figures for Lecithin PC_18:1 [Compound 15]: 1.21 ± 0.18 and 1.19 ± 0.17.
For the molecule choline phosphate [Compound 14], in assay [1], the “Relative ROS Level Bright” value worked out at 1.27 ± 0.11 and the “Relative ROS Level Red” value was 1.28 ± 0.08.
With PG_18:1 [Compound 26], the “Relative ROS Level Bright” value in assay [1] (setting [3]) was found to be 0.32 ± 0.00. Also, in assay [1] (setting [4]), the “Relative ROS Level Red” value worked out at 0.33 ± 0.00.
As for PE_18:1 [Compound 23], the “Relative ROS Level Bright” value in assay [1] (setting [3]) worked out at 0.92 ± 0.08. In addition, in assay [1] (setting [4]), the “Relative ROS Level Red” value worked out at 0.98 ± 0.04.

For the origin of these results see patent US12501868B2, “Haploid induction compounds and methods for use thereof” (WIMI BIOTECHNOLOGY (HAINAN) CO., LTD., priority 2020, dated 2025).
